Data as given in patent publication US11976062B2, “Benzisoxazole compound” (OSAKA UNIVERSITY, priority 2018, dated 2024).

Assays:
[1] = tested on: α-SMA expression induced by TGFβ1 in dermal fibroblasts; experiment: Fibrosis inhibition evaluation 1: western blotting of α-SMA in dermal fibroblasts; assay type: cell-based, mice; conditions: compound 011 0.1, 1, 10 μM (especially 10 μM); Pyr 2 10 μM; TGFβ1 10 ng/ml, 48 hours
Method: The expression of α-smooth muscle actin (α-SMA) in fibroblasts was evaluated by western blotting. Dermal fibroblasts were isolated from 1 to 3-day-old mice, and 2.5×10^5 cells were seeded in a 12-well plate. After 24 hours, the medium was replaced with a medium free of fetal bovine serum, and the cells were cultured for another 24 hours. Thereafter, 10 ng/ml of transforming growth factor β1 (TGFβ1) was added, and the cells were cultured for 48 hours. At the same time as TGFβ1 was added, a test compound (compound 011) of a predetermined concentration (0.1 μM, 1 μM, 10 μM) and 10 μM of Pyr 2 or DMSO (solvent control) were also added. […] The cultured cells were dissolved in a lysis buffer (140 mM NaCl, 20 mM Tris-HCl pH 7.8, 1% Triton-X100, 0.05% sodium deoxycholate, 0.1% SDS, 2 mM EDTA, proteinase inhibitor cocktail), and separated by SDS-PAGE, followed by detecting α-SMA using anti-α-SMA antibody (Sigma) as the primary antibody and anti-mouse IgG antibody (cell signaling) fused with horse radish peroxidase as the secondary antibody.

[2] = tested on: α-SMA expression induced by TGFβ2 in cardiac fibroblasts; experiment: Fibrosis inhibition evaluation 2: immunofluorescent staining of α-SMA in cardiac fibroblasts; assay type: cell-based, rats; conditions: 10 μM, TGFβ2 2 ng/ml, 48 hours, FIG. 8
Method: In the same manner as in Test Example 5, dermal fibroblasts were isolated from mice, and sterilized cover glass (diameter: 12 mm) was placed in a 12-well plate. On the cover glass, 2.5×10^5 cells were seeded and grown. After 24 hours, the medium was replaced with a medium free of fetal bovine serum, and the cells were cultured for another 24 hours. Separately, cardiac fibroblasts were isolated from 1 to 2-day-old rats and treated in the same manner as for the dermal fibroblasts. Thereafter, 10 ng/ml TGFβ1 was added to the dermal fibroblasts, and 2 ng/ml TGFβ2 was added to the cardiac fibroblasts, followed by culturing the cells for 48 hours. At the same time as TGFβ was added, 10 μM of a test compound (compound 011), 10 μM of Pyr 2 (conventional inhibitor), or DMSO (solvent control) was also added. Separately, cultured cells to which TGFβ-free phosphate buffered saline (PBS) was added were also prepared. […] After blocking with 1% bovine serum albumin, α-SMA was detected using anti-α-SMA antibody (Sigma) as the primary antibody and anti-mouse IgG antibody (Molecular Probes) fused with Alexa 488 as the secondary antibody, and an image was acquired using a fluorescence microscope (Keyence) with a 20× objective lens. The average fluorescence brightness (fluorescence intensity/pixel) per cell area was calculated and analyzed using Image J software.

In the case of O=C(O)c1cnc(N2CCN(c3noc4cccc(C(F)(F)F)c34)CC2)c(Cl)c1 [Compound 011, 5-chloro-6-(4-(4-(trifluoromethyl)benzo[d]isoxazol-3-yl)piperazin-1-yl) nicotinic acid], the “expression of α-SMA induced by TGFβ1 (western blotting)” value [1] is reported as “potently inhibited the expression of α-SMA induced by TGFβ1” and the “expression of α-SMA induced by TGFβ (immunofluorescent staining)” value [2] is reported as “almost completely suppressed the expression of α-SMA”.
